Data reported in patent publication US10478421B1, “Sortilin binding compounds, formulations, and uses thereof” (University of Florida, priority 2016, dated 2019).

Key:
McA cells [1] = assay: LDH release into medium (viability of McA cells); format: cell-based, rat; conditions: incubation with compound (10 μM cpd984, 18 h)
McA cells [2] = assay: VLDL-B100 secretion by McA cells (immuno slot blotting); format: cell-based, rat; conditions: for increase in VLDL-B100 secretion over the no cpd984 control: 18 h, 1% BSA/DMEM, insulin sensitive McA cells; for effect on VLDL-B100 secretion: increasing concentrations
Experimental: McArdle RH-7777 cells (McA cells) were cultured as previously described in serum containing complete Dulbecco's Modified Eagle's Medium (cDMEM). To induce insulin sensitivity, McA cells at 50-60% confluency were incubated for 18 h in serum-free media containing DMEM containing 1% (w/v) BSA (1% BSA/DMEM). Human sortilin (hsortilin) (Ser78-Asn755) with C-terminal 6-His tag was from R&D Systems, Inc., (Minneapolis, Minn.). Plasma from fasted Sprague Dawley rats (BioreclamationIVT, Westbury, N.Y.) was used to prepare VLDL apo B standards. Mouse monoclonal antibody to rat B100 was prepared in our laboratory and characterized previously. Rabbit anti-sortilin antibody was from GeneTex (GTX54854, Irvine, Calif.) or from Abcam (ab16640, Cambridge, Mass.). Rabbit anti-p-AKT (9271), rabbit anti-AKT (9272), and rabbit anti-insulin receptor β-subunit (IRβ, 3025) were from Cell Signaling Technology (Danvers, Mass.). Mouse anti-pY Platinum 4G10 was from EMD Millipore (Temecula, Calif.). (Horseradish peroxidase linked donkey anti-rabbit IgG (NA9340), sheep anti-mouse IgG (NXA931) and ECL Prime Western Blotting Detection Reagent (RPN2232) were from GE Healthcare (Buckinghamshire, UK). All other materials and reagents were essentially as described previously. Compound 98,477,898 (25)-1-methyl-N-{3-[(3-phenylpropanoyl)-amino]phenyl}pyrrolidine-2-carboxamide (cpd984) was obtained from ChemBridge Corp. (San Diego, Calif.). A stock solution of cpd984 (10 mM) was prepared in DMSO, and stored in aliquots at −20° C.
Experimental media were adjusted to 1% (v/v) protease inhibitor cocktail I (EMD Millipore) and to a salt density of 1.019 g/ml by addition of a solution of NaBr (d=1.495 g/ml). VLDL was isolated by ultracentrifugation in a L-70 Ultracentrifuge (Beckman Coulter, Inc., Fullterton, Calif.) using a 50Ti rotor (200,000×g, 18 h, 14° C.). Following centrifugation, the top 1.5-2.0 ml VLDL fraction was removed using a syringe and weighed to determine volume. VLDL samples were applied in triplicate wells (0.2-0.4 ml per well) in a Bio-Dot® SF apparatus (Bio-Rad). Two PVDF membranes were used together for blotting: the top was Immobilon-P (IPVH09120 SF) and the bottom was Immobilin-PSQ (ISEQ09120 SF); both were obtained from EMD Millipore. VLDL apo B standards were prepared from rat plasma VLDL and total apo B (B100 and B48) and B100 content were determined on stained gels following SDS-PAGE separation. VLDL-apo B standards in TBS were slotted in duplicate alongside test samples. After filtration, 0.4 ml of TBS was added as a wash. […] At this stage slot blots were evaluated similarly to immunoblotting. After chemiluminescence development and B100 quantitation, slot blots were stripped by incubation in Restore™ PLUS for 15 min at room temperature (Thermo Scientific, Rockford, Ill.) and were reblocked overnight at 4° C. Total apo B (B100 and B48) present in VLDL was then evaluated following incubation with rabbit polyclonal anti-rat apo B. The bottom PVDF membrane was carried through the entire procedure to assure there was no “bleed through” of test samples. VLDL-apo B and VLDL-B100 content were calculated from standard curves generated by VLDL apo B standards. […]
McArdle rat hepatocytes were incubated with increasing concentrations of cpd984 or cpd541 for 14-18 h and media were collected. […] Binding was detected by chemiluminescence detection and quantified using Bio-Rad software. […]

Row | Compound | LDH release / toxicity (McA cells [1]) | LDH release / toxicity (McA cells [1]; listed as 984) | increase in VLDL-B100 secretion over the no cpd984 control (McA cells [2]; 10 μM) | increase in VLDL-B100 secretion over the no cpd984 control (McA cells [2]; 25 μM) | effect of 984 on VLDL-B100 and VLDL-apoE secretion when given in combination with 541 (McA cells [2]; combination of both compounds, 0.1-25 μM, 14-18 h) | effect on VLDL-B100 secretion (McA cells [2]; 14-18 h)
1 | CN1CCC[C@H]1C(=O)Nc1cccc(NC(=O)CCc2ccccc2)c1 [cpd984, (2S)-1-methyl-N-{3-[(3-phenylpropanoyl)-amino]phenyl} pyrrolidine-2-carboxamide] | no significant release of LDH | non-toxic | 30% | 61% | abrogated | increases VLDL-B100 secretion
2 | CC(NC(=O)c1ccccc1NCC(=O)O)c1ccccc1 (centres unmarked) [cpd541] | non-toxic | – | – | – | – | decreases VLDL-B100 secretion
